Assay results published in US10238670B2, “9-aminomethyl minocycline compounds and methods of use thereof in urinary tract infection (UTI) treatment” (Paratek Pharmaceuticals, Inc., priority 2016, dated 2019).
Values after ≈ are worked out from the molar mass of the structure shown. Where two headings read alike, the source gives them in different places.

Tests used:
Test in all cases: In vitro MIC, 2010 surveillance isolates
E. coli ESBL− = type: cell-based, Escherichia coli
E. coli ESBL+ = type: cell-based, Escherichia coli
K. pneumoniae ESBL− = type: cell-based, Klebsiella pneumoniae
K. pneumoniae ESBL+ = type: cell-based, Klebsiella pneumoniae
K. oxytoca = type: cell-based
E. cloacae CeftazS = type: cell-based
E. cloacae CeftazR = type: cell-based
Enterobacter spp = type: cell-based
A. baumanii = type: cell-based
Acinetobacter spp = type: cell-based
MSSA = type: cell-based
MRSA = type: cell-based
MS CoNS = type: cell-based, Coagulase-Negative Staphylococcus
MR CoNS = type: cell-based, Coagulase-Negative Staphylococcus
E. faecalis VS = type: cell-based; details: for % R (resistance): CLSI breakpoints
E. faecalis VNS = type: cell-based; details: for % R (resistance): CLSI breakpoints
E. faecium VS = type: cell-based; details: for % R (resistance): CLSI breakpoints
E. faecium VNS = type: cell-based; details: for % R (resistance): CLSI breakpoints

In the case of `C[C@H]1COc2c(N3CCN(C)CC3)c(F)cc3c(=O)c(C(=O)O)cn1c23` [Levofloxacin], the “% R (resistance)” value (E. coli ESBL−; Asia/Pac, Eucast breakpoints) is reported as 17%, the MIC90 (E. coli ESBL−; Asia/Pac, N=282) is reported as over 4 µg/mL and the “% R (resistance)” value (E. coli ESBL−; Europe, Eucast breakpoints) is reported as 19.3%. For the same molecule, the MIC90 (E. coli ESBL−; Europe, N=1533) was over 4 µg/mL, the “% R (resistance)” value (E. coli ESBL−; L. Amer, CLSI breakpoints) was 22.9% and the MIC90 (E. coli ESBL−; L. Amer, N=389) was over 4 µg/mL. The “% R (resistance)” value (E. coli ESBL−; N America, CLSI breakpoints) was 21.9%, the MIC90 (E. coli ESBL−; N America, N=1172) was over 4 µg/mL and the “% R (resistance)” value (E. coli ESBL+; Asia/Pac, Eucast breakpoints) was 78.1%. For the same molecule, the MIC90 (E. coli ESBL+; Asia/Pac, N=219) was over 4 µg/mL, the “resistance rates for ESBL-producing clinical isolates” value (E. coli ESBL+; E. coli) was 76.5% and the MIC90 (E. coli ESBL+; Escherichia coli, ESBL-producing E. coli, read-out: MIC90) was over 4 µg/mL. For the same molecule, the “% R (resistance)” value (E. coli ESBL+; Europe, Eucast breakpoints) was 79.2%, the MIC90 (E. coli ESBL+; Europe, N=274) was over 4 µg/mL and the “% R (resistance)” value (E. coli ESBL+; L. Amer, CLSI breakpoints) was 81%. The MIC90 (E. coli ESBL+; L. Amer, N=168) was over 4 µg/mL, the “% R (resistance)” value (E. coli ESBL+; N America, CLSI breakpoints) was 74.6% and the MIC90 (E. coli ESBL+; N America, N=134) was over 4 µg/mL. The “% R (resistance)” value (K. pneumoniae ESBL−; Asia/Pac, Eucast breakpoints) was 5.3%, the MIC90 (K. pneumoniae ESBL−; Asia/Pac, N=189) was 1 µg/mL (≈ 2.77 µM) and the “% R (resistance)” value (K. pneumoniae ESBL−; Europe, Eucast breakpoints) was 4.2%. The MIC90 (K. pneumoniae ESBL−; Europe, N=361) was at most 0.5 µg/mL, the “% R (resistance)” value (K. pneumoniae ESBL−; L. Amer, CLSI breakpoints) was 7.5% and the MIC90 (K. pneumoniae ESBL−; L. Amer, N=160) was 1 µg/mL (≈ 2.77 µM). For the same molecule, the “% R (resistance)” value (K. pneumoniae ESBL−; N America, CLSI breakpoints) was 1.9%, the MIC90 (K. pneumoniae ESBL−; N America, N=671) was at most 0.5 µg/mL and the “% R (resistance)” value (K. pneumoniae ESBL+; Asia/Pac, Eucast breakpoints) was 61.3%. For the same molecule, the MIC90 (K. pneumoniae ESBL+; Asia/Pac, N=124) was over 4 µg/mL, the “% R (resistance)” value (K. pneumoniae ESBL+; Europe, Eucast breakpoints) was 66.9% and the MIC90 (K. pneumoniae ESBL+; Europe, N=151) was over 4 µg/mL. The “% R (resistance)” value (K. pneumoniae ESBL+; L. Amer, CLSI breakpoints) was 67.9%, the MIC90 (K. pneumoniae ESBL+; L. Amer, N=209) was over 4 µg/mL and the “% R (resistance)” value (K. pneumoniae ESBL+; N America, CLSI breakpoints) was 75%. For the same molecule, the MIC90 (K. pneumoniae ESBL+; N America, N=108) was over 4 µg/mL, the “% R (resistance)” value (K. oxytoca; Asia/Pac, Eucast breakpoints) was 0% and the MIC90 (K. oxytoca; Asia/Pac, N=17) was at most 0.5 µg/mL. For the same molecule, the “% R (resistance)” value (K. oxytoca; Europe, Eucast breakpoints) was 3.2%, the MIC90 (K. oxytoca; Europe, N=158) was at most 0.5 µg/mL and the “% R (resistance)” value (K. oxytoca; L. Amer, CLSI breakpoints) was 16%. The MIC90 (K. oxytoca; L. Amer, N=25) was over 4 µg/mL, the “% R (resistance)” value (K. oxytoca; N America, CLSI breakpoints) was 1.7% and the MIC90 (K. oxytoca; N America, N=177) was at most 0.5 µg/mL. For the same molecule, the “% R (resistance)” value (E. cloacae CeftazS; Asia/Pac, Eucast breakpoints) was 4%, the MIC90 (E. cloacae CeftazS; Asia/Pac, N=100) was at most 0.5 µg/mL and the “% R (resistance)” value (E. cloacae CeftazS; Europe, Eucast breakpoints) was 2.2%. The MIC90 (E. cloacae CeftazS; Europe, N=183) was at most 0.5 µg/mL, the “% R (resistance)” value (E. cloacae CeftazS; L. Amer, CLSI breakpoints) was 12.3% and the MIC90 (E. cloacae CeftazS; L. Amer, N=57) was over 4 µg/mL. For the same molecule, the “% R (resistance)” value (E. cloacae CeftazS; N America, CLSI breakpoints) was 2.9%, the MIC90 (E. cloacae CeftazS; N America, N=210) was at most 0.5 µg/mL and the “% R (resistance)” value (E. cloacae CeftazR; Asia/Pac, Eucast breakpoints) was 20.6%. The MIC90 (E. cloacae CeftazR; Asia/Pac, N=63) was over 4 µg/mL, the “% R (resistance)” value (E. cloacae CeftazR; Europe, Eucast breakpoints) was 22.2% and the MIC90 (E. cloacae CeftazR; Europe, N=72) was over 4 µg/mL. For the same molecule, the “% R (resistance)” value (E. cloacae CeftazR; L. Amer, CLSI breakpoints) was 31%, the MIC90 (E. cloacae CeftazR; L. Amer, N=42) was over 4 µg/mL and the “% R (resistance)” value (E. cloacae CeftazR; N America, CLSI breakpoints) was 19.5%. For the same molecule, the MIC90 (E. cloacae CeftazR; N America, N=77) was over 4 µg/mL, the “% R (resistance)” value (Enterobacter spp; Asia/Pac, Eucast breakpoints) was 1.9% and the MIC90 (Enterobacter spp; Asia/Pac, N=52) was at most 0.5 µg/mL. The “% R (resistance)” value (Enterobacter spp; Europe, Eucast breakpoints) was 73%, the MIC90 (Enterobacter spp; Europe, N=82) was 1 µg/mL (≈ 2.77 µM) and the “% R (resistance)” value (Enterobacter spp; L. Amer, CLSI breakpoints) was 9.5%. The MIC90 (Enterobacter spp; L. Amer, N=42) was 4 µg/mL (≈ 11.1 µM), the “% R (resistance)” value (Enterobacter spp; N America, CLSI breakpoints) was 1% and the MIC90 (Enterobacter spp; N America, N=101) was at most 0.5 µg/mL. The “% R (resistance)” value (A. baumanii; Asia/Pac, Eucast breakpoints) was 79.3%, the MIC90 (A. baumanii; Asia/Pac, N=275) was over 4 µg/mL and the “% R (resistance)” value (A. baumanii; Europe, Eucast breakpoints) was 74.5%. For the same molecule, the MIC90 (A. baumanii; Europe, N=145) was over 4 µg/mL, the “% R (resistance)” value (A. baumanii; L. Amer, CLSI breakpoints) was 86.9% and the MIC90 (A. baumanii; L. Amer, N=275) was over 4 µg/mL. The “% R (resistance)” value (A. baumanii; N America, CLSI breakpoints) was 68.8%, the MIC90 (A. baumanii; N America, N=154) was over 4 µg/mL and the “% R (resistance)” value (Acinetobacter spp; Asia/Pac, Eucast breakpoints) was 11.1%. The “% R (resistance)” value (Acinetobacter spp; Europe, Eucast breakpoints) was 41.9%, the MIC90 (Acinetobacter spp; Europe, N=43) was over 4 µg/mL and the “% R (resistance)” value (Acinetobacter spp; L. Amer, CLSI breakpoints) was 33.3%. The “% R (resistance)” value (Acinetobacter spp; N America, CLSI breakpoints) was 14.3%, the MIC90 (Acinetobacter spp; N America, N=42) was over 4 µg/mL and the “% R (resistance)” value (MSSA; Asia/Pac, Eucast breakpoints) was 5.9%. For the same molecule, the MIC90 (MSSA; Asia/Pac, N=641) was at most 0.5 µg/mL, the “% R (resistance)” value (MSSA; Europe, Eucast breakpoints) was 5.5% and the MIC90 (MSSA; Europe, N=2109) was at most 0.5 µg/mL. For the same molecule, the “% R (resistance)” value (MSSA; L. Amer, CLSI breakpoints) was 2.2%, the MIC90 (MSSA; L. Amer, N=590) was at most 0.5 µg/mL and the “% R (resistance)” value (MSSA; N America, CLSI breakpoints) was 10.8%. The MIC90 (MSSA; N America, N=2373) was 4 µg/mL (≈ 11.1 µM), the “% R (resistance)” value (MRSA; Asia/Pac, Eucast breakpoints) was 70.6% and the MIC90 (MRSA; Asia/Pac, N=428) was over 4 µg/mL. The “% R (resistance)” value (MRSA; Europe, Eucast breakpoints) was 86.4%, the MIC90 (MRSA; Europe, N=750) was over 4 µg/mL and the “% R (resistance)” value (MRSA; L. Amer, CLSI breakpoints) was 84%. The MIC90 (MRSA; L. Amer, N=506) was over 4 µg/mL, the “% R (resistance)” value (MRSA; N America, CLSI breakpoints) was 67.3% and the MIC90 (MRSA; N America, N=2508) was over 4 µg/mL. The “% R (resistance)” value (MS CoNS; Asia/Pac, Eucast breakpoints) was 16.7%, the MIC90 (MS CoNS; Asia/Pac, N=18) was over 4 µg/mL and the “% R (resistance)” value (MS CoNS; Europe, Eucast breakpoints) was 9.7%. For the same molecule, the MIC90 (MS CoNS; Europe, N=185) was 2 µg/mL (≈ 5.53 µM), the “% R (resistance)” value (MS CoNS; L. Amer, CLSI breakpoints) was 6% and the MIC90 (MS CoNS; L. Amer, N=67) was at most 0.5 µg/mL. The “% R (resistance)” value (MS CoNS; N America, CLSI breakpoints) was 23.6%, the MIC90 (MS CoNS; N America, N=191) was over 4 µg/mL and the “% R (resistance)” value (MR CoNS; Asia/Pac, Eucast breakpoints) was 55.8%. For the same molecule, the MIC90 (MR CoNS; Asia/Pac, N=77) was over 4 µg/mL, the “% R (resistance)” value (MR CoNS; Europe, Eucast breakpoints) was 64.9% and the MIC90 (MR CoNS; Europe, N=510) was over 4 µg/mL. The “% R (resistance)” value (MR CoNS; L. Amer, CLSI breakpoints) was 57.8%, the MIC90 (MR CoNS; L. Amer, N=301) was over 4 µg/mL and the “% R (resistance)” value (MR CoNS; N America, CLSI breakpoints) was 64.9%. The MIC90 (MR CoNS; N America, N=461) was over 4 µg/mL, the MIC90 (E. faecalis VS; Asia/Pac, N=214) was over 4 µg/mL and the MIC90 (E. faecalis VS; Europe, N=669) was over 4 µg/mL. For the same molecule, the “% R (resistance)” value (E. faecalis VS; L. Amer) was 30%, the MIC90 (E. faecalis VS; L. Amer, N=290) was over 4 µg/mL and the “% R (resistance)” value (E. faecalis VS; N America) was 29.3%. For the same molecule, the MIC90 (E. faecalis VS; N America, N=863) was over 4 µg/mL, the “range of MICs (N <10, shown instead of MIC90)” value (E. faecalis VNS; Asia/Pac, N=1) was over 4 and the “% R (resistance)” value (E. faecalis VNS; L. Amer) was 100%. The “range of MICs (N <10, shown instead of MIC90)” value (E. faecalis VNS; L. Amer, N=7) was over 4, the “% R (resistance)” value (E. faecalis VNS; N America) was 97.4% and the MIC90 (E. faecalis VNS; N America, N=38) was over 4 µg/mL. For the same molecule, the MIC90 (E. faecium VS; Asia/Pac, N=106) was over 4 µg/mL, the MIC90 (E. faecium VS; Europe, N=303) was over 4 µg/mL and the “% R (resistance)” value (E. faecium VS; L. Amer) was 78.4%. The MIC90 (E. faecium VS; L. Amer, N=51) was over 4 µg/mL, the “% R (resistance)” value (E. faecium VS; N America) was 68.7% and the MIC90 (E. faecium VS; N America, N=115) was over 4 µg/mL. For the same molecule, the MIC90 (E. faecium VNS; Asia/Pac, N=24) was over 4 µg/mL, the MIC90 (E. faecium VNS; Europe, N=71) was over 4 µg/mL and the “% R (resistance)” value (E. faecium VNS; L. Amer) was 100%. The MIC90 (E. faecium VNS; L. Amer, N=41) was over 4 µg/mL, the “% R (resistance)” value (E. faecium VNS; N America) was 99.6% and the MIC90 (E. faecium VNS; N America, N=478) was over 4 µg/mL.
